Assay results from PMC3973022, “Quercetin and quercetin 3-O-glycosides from Bauhinia longifolia (Bong.) Steud. show anti-Mayaro virus activity” (Parasites & Vectors, 2014).
Converted amounts (≈) assume the structure as drawn. “Also recorded” adds a separate entry of the source.

Experiments:
[1] = Cytotoxicity by dye-uptake (neutral red) assay; conditions: African green monkey
Experimental: (§1) Vero cells (African green monkey kidney, ATCC CCL-81) were grown at 37°C with 5% CO2, in Dulbecco’s modified Eagle’s medium (DMEM) (Life Technologies, USA) supplemented with 5% fetal bovine serum (Cultilab, BRA), 50 IU/mL of penicillin, and 50 μg/mL of streptomycin (Sigma-Aldrich, USA). Mayaro viruses (ATCC VR-66, lineage TR 4675) were propagated in Vero cells and viral stocks in 10% glycerol were kept at -70°C. Virus titer was determined by plaque assay (described under ‘Antiviral activity assay’).
Briefly, confluent cultures of Vero cells in 96-well microplates were treated with culture media containing different concentrations of the substances being tested. After 24 hours, the culture medium was replaced by a solution of 50 μg/mL neutral red and the cells were incubated for 3 hours, at 37°C, 5% CO2. Cells were then fixed with 20% formaldehyde and extracted with 50% methanol and 1% acetic acid, before measurement of absorbance at λ490 nm, using a spectrophotometer, to detect neutral red incorporation by living cells.

Mayaro virus (MAYV) = assay: microbe, parasite or virus in culture; type: cell-based; conditions: for IC90: Vero, 24 h, read-out: IC90 (90% inhibitory concentration of viral replication); for IC50: read-out: IC50 (50% inhibitory concentration of viral replication), MAYV MOI 0.1 in Vero cells, 24 h treatment; for anti-MAYV activity (in words): concentrations tested 0–100 μg/ml
Experimental: as §1
Antiviral activity was evaluated using a virus yield inhibition assay. Briefly, confluent cell monolayers grown in 24-well plates were infected with MAYV (multiplicity of infection = 0.1) for 1 hour, then rinsed with PBS and treated for 24 hours (at 37°C and 5% CO2) with different concentrations (0–100 μg/ml) of flavonoids or extracts diluted in culture medium. After treatment, culture supernatants were recovered and used for titration of extracellular infectious virus particles. For virus titration, confluent cell monolayers in 24-well plates were infected with serial dilutions of recovered supernatants for 1 hour at 37°C, 5% CO2. After inoculum removal, cells were rinsed with PBS and the monolayer was incubated with fresh medium with 2% carboxymethylcellulose (Sigma-Aldrich, USA) for 48 hours at 37°C, 5% CO2. Finally, cells were fixed with 20% formaldehyde and stained with 0.5% crystal violet in 20% ethanol, and viral plaques were counted. […] P-values < 0.05 were considered statistically significant.

Row | Structure (SMILES) | CC50 at 24 h [1] [µg/mL] | IC90 (Mayaro virus (MAYV); Mayaro virus) [µg/mL] | IC50 (Mayaro virus (MAYV); Mayaro virus) [µg/mL] | anti-MAYV activity (in words) (Mayaro virus (MAYV); Vero cells) | SI (Selectivity Index = CC50/IC50) (Mayaro virus (MAYV); CC50 in Vero cells / IC50 against MAYV) | inhibition at 25 µg/mL (Mayaro virus (MAYV); Mayaro virus, at 25 μg/mL, Vero cells, read-out: inhibition of MAYV replication/production) [%]
1 | O=c1c(OC2OCC(O)C(O)C2O)c(-c2ccc(O)c(O)c2)oc2cc(O)cc(O)c12 (stereo not drawn) [Guaijaverin, quercetin-3-O-α-arabinoside] | 795 ± 54 (≈ 1830 µM) | > 100 | > 100 | did not show significant antiviral activity; also recorded: absence of anti-MAYV activity | – | –
2 | O=c1c(O)c(-c2ccc(O)c(O)c2)oc2cc(O)cc(O)c12 [Quercetin, quercetin] | 941 ± 123 (≈ 3110 µM) | 19 ± 0.7 (≈ 62.9 µM) | 10 ± 0.7 (≈ 33.1 µM) | showed significant anti-MAYV activity | 94 | > 90
3 | C[C@@H]1O[C@@H](Oc2c(-c3ccc(O)c(O)c3)oc3cc(O)cc(O)c3c2=O)[C@H](O)[C@H](O)[C@H]1O [Quercitrin, quercetin-3-O-α-rhamnoside] | 411 ± 46 (≈ 917 µM) | > 100 | > 100 | did not show significant antiviral activity; also recorded: absence of anti-MAYV activity | – | –
4 | NC(=O)c1ncn([C@@H]2O[C@H](CO)[C@@H](O)[C@H]2O)n1 [Ribavirin, reference compound] | 523 ± 42 (≈ 2140 µM) | > 100 | 62 ± 4 (≈ 254 µM) | – | – | –
